# Measurements: ChEMBL document CHEMBL6074635, “Replacement of the essential nitro group by electrophilic warheads towards nitro-free antimycobacterial benzothiazinones” (Eur J Med Chem, 2024)
# Tests used:
# Mycolicibacterium vaccae = assay: Antimycobacterial activity against Mycobacterium vaccae JMRC:STI:10670 assessed as inhibition of bacterial growth incubated for 42 hrs by broth microdilution method; assay type: functional
# [1] = tested on: Mycolicibacterium smegmatis; assay: Antimycobacterial activity against Mycobacterium smegmatis JMRC:STH:00056 assessed as inhibition of bacterial growth incubated for 42 hrs by broth microdilution method; assay type: functional
# [2] = Cytotoxicity against human HeLa cells incubated for 72 hrs by cell-titer blue reagent assay; assay type: toxicity, cell-based
# [3] = Stability of compound in PBS at pH 7.4 in presence of GSH incubated for 90 mins by UPLC-HRMS analysis; assay type: physicochemical; details: buffer, pH 7.4, 1.5 h
# [4] = Drug metabolism in BALB/cAnNCrl mouse assessed as HMC metabolite formation at 250 mg/kg,po measured after 24 hrs by UHPLC-HRMS analysis; assay type: ADME, organism-based; details: in vivo
# [5] = tested on: Mycobacterium tuberculosis; assay: Antimycobacterial activity against Mycobacterium tuberculosis H37Rv assessed as inhibition of bacterial growth incubated for 7 days by resazurin dye based two-fold dilution assay; assay type: functional; details: 168 h, time 7 day
# [6] = tested on: Mycobacterium tuberculosis; assay: Antimycobacterial activity against Mycobacterium tuberculosis Erdman ATCC 35801 assessed as inhibition of bacterial growth incubated for 7 days by resazurin dye based two-fold dilution assay; assay type: functional; details: Erdman ATCC 35801, 168 h, time 7 day
# [7] = Stability of compound in PBS at pH 7.4 assessed as compound remaining in presence of GSH incubated for 90 mins by UPLC-HRMS analysis; assay type: physicochemical; details: PBS with GSH, read-out: Stability
# [8] = target: T1, Decaprenylphosphoryl-beta-D-ribose oxidase (Mycobacterium tuberculosis (strain ATCC 25618 / H37Rv), UniProt P9WJF1); assay: Reversible inhibition of recombinant Mycobacterium tuberculosis DprE1 extracted from Escherichia coli BL21(DE3) using FPR/GGPR as substrate incubated for 60 mins by resazurin dye based fluorescence plate reader analysis
# T1 sequence (P9WJF1 whole entry): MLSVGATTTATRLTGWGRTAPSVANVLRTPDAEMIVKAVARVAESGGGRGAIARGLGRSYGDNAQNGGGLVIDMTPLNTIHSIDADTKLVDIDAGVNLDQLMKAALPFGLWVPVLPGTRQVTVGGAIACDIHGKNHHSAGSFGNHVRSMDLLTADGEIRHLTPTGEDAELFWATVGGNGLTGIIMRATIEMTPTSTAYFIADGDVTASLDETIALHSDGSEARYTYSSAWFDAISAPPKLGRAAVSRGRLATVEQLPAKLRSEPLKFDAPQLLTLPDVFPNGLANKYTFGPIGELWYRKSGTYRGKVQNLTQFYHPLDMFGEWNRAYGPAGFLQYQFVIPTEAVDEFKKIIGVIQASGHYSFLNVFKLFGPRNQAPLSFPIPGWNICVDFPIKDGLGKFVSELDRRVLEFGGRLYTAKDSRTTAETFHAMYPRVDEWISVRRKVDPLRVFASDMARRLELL
# [9] = target: T1, Decaprenylphosphoryl-beta-D-ribose oxidase; assay: Covalent inhibition of recombinant Mycobacterium tuberculosis DprE1 extracted from Escherichia coli BL21(DE3) using FPR/GGPR as substrate incubated for 60 mins by resazurin dye based fluorescence plate reader analysis
# [10] = target: T1, Decaprenylphosphoryl-beta-D-ribose oxidase; assay: Covalent inhibition of recombinant Mycobacterium tuberculosis DprE1 extracted from Escherichia coli BL21(DE3) assessed as inhibition constant using FPR/GGPR as substrate incubated for 60 mins by resazurin dye based fluorescence plate reader analysis
# [11] = Stability of compound in PBS at pH 7.4 assessed as half-life in presence of GSH incubated for 90 mins by UPLC-HRMS analysis; assay type: physicochemical; details: PBS with GSH
SMILES,MIC (Mycolicibacterium vaccae),MIC [1],CC50 at 72 h [2],Stability [3],Drug metabolism [4],MIC [5],MIC [6],remaining at 1.5 h [7],IC50 [8],IC50 [9],Ki [10],half-life [11]
COC(=O)C(=O)Nc1cc(C(F)(F)F)cc2c(=O)nc(N3CCC4(CC3)OC[C@H](C)O4)sc12,51.3 µM,103 µM,> 50 µM,Unstable,metabolite_notdetected,,,,,,,
C=CP(=O)(Nc1cc(C(F)(F)F)cc2c(=O)nc(N3CCC4(CC3)OC[C@H](C)O4)sc12)OCC (stereo partly specified),6 µM,24.1 µM,> 50 µM,,metabolite_notdetected,4.5 µM,5 µM,100%,19.5 µM,,,
C[C@H]1COC2(CCN(c3nc(=O)c4cc(C(F)(F)F)cc([N+](=O)[O-])c4s3)CC2)O1 [BTZ-043],0.004 µM,0.058 µM,,,,0.002 µM,0.002 µM,,,,,
CC(Cl)C(=O)Nc1cc(C(F)(F)F)cc2c(=O)nc(N3CCC4(CC3)OC[C@H](C)O4)sc12 (stereo partly specified),102 µM,102 µM,> 50 µM,,metabolite_notdetected,,,100%,,,,
C=CC(=O)Nc1cc(C(F)(F)F)cc2c(=O)nc(N3CCC4(CC3)OC[C@H](C)O4)sc12,,110 µM,,,,3.9 µM,3.6 µM,,,6.83 µM,38.8 µM,
C=CS(=O)(=O)Nc1cc(C(F)(F)F)cc2c(=O)nc(N3CCC4(CC3)OC[C@H](C)O4)sc12,1.6 µM,25.4 µM,,,,45.2 µM,44.9 µM,,2.62 µM,,,
CCOC(=O)C(=O)Nc1cc(C(F)(F)F)cc2c(=O)nc(N3CCC4(CC3)OC[C@H](C)O4)sc12,49.8 µM,99.7 µM,> 50 µM,Unstable,metabolite_notdetected,,,,,,,
C[C@H]1COC2(CCN(c3nc(=O)c4cc(C(F)(F)F)cc(NC(=O)C(C)(C)Br)c4s3)CC2)O1,45.4 µM,90.8 µM,> 50 µM,,metabolite_notdetected,,,100%,,81.4 µM,715 µM,
C=C(F)C(=O)Nc1cc(C(F)(F)F)cc2c(=O)nc(N3CCC4(CC3)OC[C@H](C)O4)sc12,13.2 µM,106 µM,,,,13 µM,15.5 µM,,1.13 µM,,,
C#CP(=O)(Nc1cc(C(F)(F)F)cc2c(=O)nc(N3CCC4(CC3)OC[C@H](C)O4)sc12)OCC (stereo partly specified),12 µM,96.6 µM,10.8 µM,,metabolite_notdetected,10.3 µM,10.3 µM,,,,,10.5 min
C=C=CC(=O)Nc1cc(C(F)(F)F)cc2c(=O)nc(N3CCC4(CC3)OC[C@H](C)O4)sc12,107 µM,107 µM,,,,,,,,,,
C=C(C)C(=O)Nc1cc(C(F)(F)F)cc2c(=O)nc(N3CCC4(CC3)OC[C@H](C)O4)sc12,26.6 µM,106 µM,,,,,,,,33.9 µM,214 µM,
C[C@H]1COC2(CCN(c3nc(=O)c4cc(C(F)(F)F)cc(N5CCC5=O)c4s3)CC2)O1,54.9 µM,110 µM,> 50 µM,,,,,100%,,,,
